# ChEMBL document CHEMBL5465560, “Selectivity Literature for EUbOPEN Chemogenomic Library” (2024)
# How the values were obtained:
# [1] = biological target: Mitogen-activated protein kinase 9 (Homo sapiens, UniProt P45984); assay: Selectivity interaction (KinomeScan (DiscoverX)) EUB0000229b MAPK9; conditions: at 10 µM
# [2] = biological target: T1, Receptor-interacting serine/threonine-protein kinase 4 (Homo sapiens) (UniProt P57078); assay: Selectivity interaction (KinomeScan (DiscoverX)) EUB0000092b RIPK4; conditions: at 10 µM
# T1 sequence (whole entry): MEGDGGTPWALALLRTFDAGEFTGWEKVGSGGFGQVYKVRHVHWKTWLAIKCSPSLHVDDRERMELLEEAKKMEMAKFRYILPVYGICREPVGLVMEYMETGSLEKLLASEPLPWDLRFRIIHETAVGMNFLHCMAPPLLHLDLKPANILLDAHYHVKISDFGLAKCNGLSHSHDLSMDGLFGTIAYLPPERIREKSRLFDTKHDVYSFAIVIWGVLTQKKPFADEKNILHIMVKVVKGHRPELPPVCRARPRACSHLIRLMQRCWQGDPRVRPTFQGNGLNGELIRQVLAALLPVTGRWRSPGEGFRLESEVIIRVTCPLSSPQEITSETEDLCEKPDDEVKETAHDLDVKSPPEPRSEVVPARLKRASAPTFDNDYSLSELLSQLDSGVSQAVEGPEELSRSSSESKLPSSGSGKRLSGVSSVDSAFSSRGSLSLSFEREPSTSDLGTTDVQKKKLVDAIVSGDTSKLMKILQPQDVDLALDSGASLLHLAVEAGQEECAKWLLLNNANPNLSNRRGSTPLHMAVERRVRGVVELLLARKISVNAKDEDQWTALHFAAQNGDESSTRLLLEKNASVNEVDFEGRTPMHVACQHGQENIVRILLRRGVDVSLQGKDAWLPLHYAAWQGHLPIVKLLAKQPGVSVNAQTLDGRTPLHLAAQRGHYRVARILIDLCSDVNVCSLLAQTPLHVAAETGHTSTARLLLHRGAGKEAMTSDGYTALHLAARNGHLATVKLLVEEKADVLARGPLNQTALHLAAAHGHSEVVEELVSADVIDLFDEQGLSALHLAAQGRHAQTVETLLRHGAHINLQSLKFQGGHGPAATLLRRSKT
# [3] = biological target: Microtubule-associated serine/threonine-protein kinase 1 (Homo sapiens) (UniProt Q9Y2H9); conditions: at 10 µM
# Sequence of Microtubule-associated serine/threonine-protein kinase 1 (Homo sapiens) (Q9Y2H9 whole entry, looked up): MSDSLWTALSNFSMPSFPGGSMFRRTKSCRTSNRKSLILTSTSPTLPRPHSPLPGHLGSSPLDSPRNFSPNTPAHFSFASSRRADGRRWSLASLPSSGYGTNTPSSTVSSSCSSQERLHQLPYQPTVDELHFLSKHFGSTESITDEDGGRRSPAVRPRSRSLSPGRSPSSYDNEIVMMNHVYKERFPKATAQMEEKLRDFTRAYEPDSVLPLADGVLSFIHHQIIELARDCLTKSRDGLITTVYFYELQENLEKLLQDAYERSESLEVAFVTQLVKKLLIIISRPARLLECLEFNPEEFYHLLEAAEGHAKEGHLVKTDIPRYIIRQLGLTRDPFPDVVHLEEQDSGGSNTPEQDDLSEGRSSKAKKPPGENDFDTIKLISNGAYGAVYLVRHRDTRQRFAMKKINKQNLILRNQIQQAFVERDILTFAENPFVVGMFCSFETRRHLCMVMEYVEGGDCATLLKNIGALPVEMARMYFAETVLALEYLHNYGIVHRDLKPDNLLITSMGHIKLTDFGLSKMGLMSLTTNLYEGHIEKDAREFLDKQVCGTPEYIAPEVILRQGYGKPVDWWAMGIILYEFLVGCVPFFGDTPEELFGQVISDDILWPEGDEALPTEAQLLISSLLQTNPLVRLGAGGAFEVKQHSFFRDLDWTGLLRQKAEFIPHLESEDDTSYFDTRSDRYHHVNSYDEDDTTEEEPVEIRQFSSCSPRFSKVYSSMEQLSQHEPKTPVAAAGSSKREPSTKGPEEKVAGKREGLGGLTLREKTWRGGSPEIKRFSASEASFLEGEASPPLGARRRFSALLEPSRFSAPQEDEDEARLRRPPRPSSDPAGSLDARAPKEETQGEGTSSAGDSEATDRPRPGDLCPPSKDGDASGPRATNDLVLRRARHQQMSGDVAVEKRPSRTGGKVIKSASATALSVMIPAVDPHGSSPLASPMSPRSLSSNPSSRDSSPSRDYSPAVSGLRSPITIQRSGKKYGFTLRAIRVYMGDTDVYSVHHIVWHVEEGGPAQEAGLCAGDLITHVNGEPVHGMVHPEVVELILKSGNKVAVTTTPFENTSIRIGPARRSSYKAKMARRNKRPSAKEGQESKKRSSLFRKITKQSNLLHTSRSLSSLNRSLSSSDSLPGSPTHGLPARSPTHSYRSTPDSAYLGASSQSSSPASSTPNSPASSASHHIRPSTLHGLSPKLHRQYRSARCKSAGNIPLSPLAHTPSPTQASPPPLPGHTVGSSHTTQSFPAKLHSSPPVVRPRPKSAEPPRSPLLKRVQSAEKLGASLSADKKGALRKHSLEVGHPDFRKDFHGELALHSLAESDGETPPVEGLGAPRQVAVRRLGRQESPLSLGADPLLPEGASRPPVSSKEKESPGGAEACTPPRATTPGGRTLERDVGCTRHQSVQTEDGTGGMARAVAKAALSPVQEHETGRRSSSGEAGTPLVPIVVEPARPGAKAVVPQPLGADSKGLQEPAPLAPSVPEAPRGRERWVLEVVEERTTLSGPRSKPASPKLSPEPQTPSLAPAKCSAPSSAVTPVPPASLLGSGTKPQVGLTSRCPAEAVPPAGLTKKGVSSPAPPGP
# [4] = system: T2, Receptor-type tyrosine-protein kinase FLT3 (Homo sapiens), P36888 [D835Y]; assay: (§1) Selectivity interaction (Kinase panel (Z-LYTE Assay)) EUB0001632a FLT3; conditions: at 10 µM
# T2 sequence (whole entry): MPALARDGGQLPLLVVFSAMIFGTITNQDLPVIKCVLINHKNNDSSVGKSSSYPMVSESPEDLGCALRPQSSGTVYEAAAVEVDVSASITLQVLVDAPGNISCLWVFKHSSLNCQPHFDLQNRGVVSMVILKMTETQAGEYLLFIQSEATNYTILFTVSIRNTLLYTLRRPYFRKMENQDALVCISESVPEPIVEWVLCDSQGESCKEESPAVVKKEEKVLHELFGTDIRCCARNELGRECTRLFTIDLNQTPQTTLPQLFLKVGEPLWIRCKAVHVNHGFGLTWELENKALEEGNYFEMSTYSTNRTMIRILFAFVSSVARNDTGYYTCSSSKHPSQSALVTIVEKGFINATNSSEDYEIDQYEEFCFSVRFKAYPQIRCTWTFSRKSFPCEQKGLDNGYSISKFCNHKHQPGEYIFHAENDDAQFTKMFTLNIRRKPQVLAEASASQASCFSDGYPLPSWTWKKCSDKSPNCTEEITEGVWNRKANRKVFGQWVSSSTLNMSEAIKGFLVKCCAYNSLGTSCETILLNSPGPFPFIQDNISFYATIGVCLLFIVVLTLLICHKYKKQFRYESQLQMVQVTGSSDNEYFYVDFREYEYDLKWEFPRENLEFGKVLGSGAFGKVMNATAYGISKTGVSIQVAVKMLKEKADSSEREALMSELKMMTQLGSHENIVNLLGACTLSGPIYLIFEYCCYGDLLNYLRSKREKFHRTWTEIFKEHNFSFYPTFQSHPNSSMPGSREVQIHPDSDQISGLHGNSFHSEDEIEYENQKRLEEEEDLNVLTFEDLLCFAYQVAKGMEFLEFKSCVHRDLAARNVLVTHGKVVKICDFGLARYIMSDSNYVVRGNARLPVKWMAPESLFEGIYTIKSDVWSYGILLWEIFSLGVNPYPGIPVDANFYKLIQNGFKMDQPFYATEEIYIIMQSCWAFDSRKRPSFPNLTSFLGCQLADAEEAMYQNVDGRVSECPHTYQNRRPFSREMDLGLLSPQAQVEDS
# [5] = biological target: Receptor-type tyrosine-protein kinase FLT3 (Homo sapiens) (UniProt P36888); assay: as §1; conditions: at 10 µM
# [6] = biological target: Rho-associated protein kinase 1 (Homo sapiens) (UniProt Q13464); assay: Selectivity interaction (KinomeScan (DiscoverX)) EUB0000607a ROCK1; conditions: at 10 µM
# Sequence of Rho-associated protein kinase 1 (Homo sapiens) (Q13464 2-1354 limits assumed): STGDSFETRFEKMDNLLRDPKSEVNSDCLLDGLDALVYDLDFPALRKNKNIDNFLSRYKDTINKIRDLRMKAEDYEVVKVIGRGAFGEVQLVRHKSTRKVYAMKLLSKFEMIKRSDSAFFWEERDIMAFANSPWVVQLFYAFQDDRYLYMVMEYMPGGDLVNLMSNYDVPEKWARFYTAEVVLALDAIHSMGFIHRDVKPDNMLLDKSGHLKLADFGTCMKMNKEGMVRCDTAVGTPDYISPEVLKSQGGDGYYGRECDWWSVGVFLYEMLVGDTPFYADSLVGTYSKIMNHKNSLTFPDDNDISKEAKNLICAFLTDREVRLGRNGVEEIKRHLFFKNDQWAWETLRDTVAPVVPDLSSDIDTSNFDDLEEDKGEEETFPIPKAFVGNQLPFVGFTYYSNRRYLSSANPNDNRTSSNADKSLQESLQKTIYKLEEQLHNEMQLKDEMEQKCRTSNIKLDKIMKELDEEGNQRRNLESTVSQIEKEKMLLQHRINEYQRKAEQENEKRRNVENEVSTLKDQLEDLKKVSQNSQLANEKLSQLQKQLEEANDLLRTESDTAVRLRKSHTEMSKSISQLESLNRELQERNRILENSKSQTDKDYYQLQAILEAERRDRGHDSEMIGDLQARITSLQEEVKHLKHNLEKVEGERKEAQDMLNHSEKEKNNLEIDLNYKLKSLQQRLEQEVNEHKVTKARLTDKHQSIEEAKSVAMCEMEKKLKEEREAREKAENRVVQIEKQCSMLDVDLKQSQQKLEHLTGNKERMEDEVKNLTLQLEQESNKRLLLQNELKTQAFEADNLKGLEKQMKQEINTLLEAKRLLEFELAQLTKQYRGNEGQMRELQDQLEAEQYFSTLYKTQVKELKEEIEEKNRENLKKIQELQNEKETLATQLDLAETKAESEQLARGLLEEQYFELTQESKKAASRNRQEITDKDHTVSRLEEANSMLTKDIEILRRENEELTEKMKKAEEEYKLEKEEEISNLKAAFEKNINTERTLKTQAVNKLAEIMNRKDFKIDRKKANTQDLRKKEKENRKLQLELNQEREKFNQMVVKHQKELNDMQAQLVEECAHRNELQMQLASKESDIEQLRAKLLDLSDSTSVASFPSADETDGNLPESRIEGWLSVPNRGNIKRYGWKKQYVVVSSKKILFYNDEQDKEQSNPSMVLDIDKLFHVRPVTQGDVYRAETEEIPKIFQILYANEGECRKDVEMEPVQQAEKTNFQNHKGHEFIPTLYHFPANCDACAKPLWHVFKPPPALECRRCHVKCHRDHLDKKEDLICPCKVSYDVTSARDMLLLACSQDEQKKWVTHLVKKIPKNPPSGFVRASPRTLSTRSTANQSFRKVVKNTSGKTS
# [7] = biological target: Receptor tyrosine-protein kinase erbB-4 (Homo sapiens, UniProt Q15303); assay: Selectivity interaction (SelectScreen profiling (Invitrogen)) EUB0000607a ERBB4; conditions: at 2 µM
# [8] = biological target: AP2-associated protein kinase 1 (Homo sapiens, UniProt Q2M2I8); assay: Selectivity interaction (KinomeScan (DiscoverX)) EUB0001049a AAK1; conditions: at 1 µM
# Sequence of AP2-associated protein kinase 1 (Q2M2I8 whole entry, looked up): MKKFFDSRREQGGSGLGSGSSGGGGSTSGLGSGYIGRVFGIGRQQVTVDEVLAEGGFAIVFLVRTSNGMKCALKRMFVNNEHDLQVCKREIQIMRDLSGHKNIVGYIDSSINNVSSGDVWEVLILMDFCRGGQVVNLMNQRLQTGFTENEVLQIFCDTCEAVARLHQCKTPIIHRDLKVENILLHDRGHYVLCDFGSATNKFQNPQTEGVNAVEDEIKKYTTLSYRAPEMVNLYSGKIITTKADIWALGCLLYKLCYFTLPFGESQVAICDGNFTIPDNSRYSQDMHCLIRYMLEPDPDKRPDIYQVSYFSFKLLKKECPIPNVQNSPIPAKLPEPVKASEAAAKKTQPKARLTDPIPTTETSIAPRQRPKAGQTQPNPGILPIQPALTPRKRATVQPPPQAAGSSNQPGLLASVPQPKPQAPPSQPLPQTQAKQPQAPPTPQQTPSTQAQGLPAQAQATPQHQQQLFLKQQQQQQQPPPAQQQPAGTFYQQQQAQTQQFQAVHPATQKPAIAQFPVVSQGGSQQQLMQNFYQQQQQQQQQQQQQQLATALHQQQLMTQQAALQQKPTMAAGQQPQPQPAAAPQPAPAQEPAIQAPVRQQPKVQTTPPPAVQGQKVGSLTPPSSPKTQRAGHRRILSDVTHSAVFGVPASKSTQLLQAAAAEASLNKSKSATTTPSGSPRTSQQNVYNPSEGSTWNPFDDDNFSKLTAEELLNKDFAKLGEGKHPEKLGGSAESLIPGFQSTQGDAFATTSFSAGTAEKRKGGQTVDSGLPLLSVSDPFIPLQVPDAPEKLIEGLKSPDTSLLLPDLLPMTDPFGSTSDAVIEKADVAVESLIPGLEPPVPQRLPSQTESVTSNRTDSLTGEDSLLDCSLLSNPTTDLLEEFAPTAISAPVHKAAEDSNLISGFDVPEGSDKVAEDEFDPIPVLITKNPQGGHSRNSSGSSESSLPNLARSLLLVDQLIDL
# [9] = biological target: Vascular endothelial growth factor receptor 1 (Homo sapiens) (UniProt P17948); assay: Selectivity interaction (KinomeScan (DiscoverX)) EUB0001049a FLT1; conditions: at 1 µM
# Sequence of Mitogen-activated protein kinase 9 (P45984 whole entry, looked up): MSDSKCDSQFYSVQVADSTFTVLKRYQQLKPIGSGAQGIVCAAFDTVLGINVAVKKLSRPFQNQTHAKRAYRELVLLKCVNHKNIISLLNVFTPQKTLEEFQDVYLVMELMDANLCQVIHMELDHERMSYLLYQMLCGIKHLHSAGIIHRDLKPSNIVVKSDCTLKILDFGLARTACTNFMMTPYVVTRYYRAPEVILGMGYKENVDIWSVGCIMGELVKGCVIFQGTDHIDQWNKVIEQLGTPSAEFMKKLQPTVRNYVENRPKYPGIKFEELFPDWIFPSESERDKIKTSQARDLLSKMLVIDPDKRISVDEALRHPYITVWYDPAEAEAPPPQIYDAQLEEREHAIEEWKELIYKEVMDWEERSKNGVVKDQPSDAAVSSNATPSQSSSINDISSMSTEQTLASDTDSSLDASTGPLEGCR
structure (smiles),measurement,setting,value
COc1cc(N(C)c2ccnc3ccc(C(F)(F)F)cc23)cc(OC)c1OC,% binding,[1],80%
CCC(=O)N1CCN(c2ccc(-n3c(=O)ccc4cnc5ccc(-c6cnc7ccccc7c6)cc5c43)cc2C(F)(F)F)CC1,% of control,[2],100%
Cc1cc([C@@H](C)Nc2ccccc2C(=O)O)c2nc(N3CCOCC3)cc(=O)n2c1 [AZD-6482],% of control,[3],100%
Cn1cc(-n2cnc3c(NCc4nc5cc(Cl)c(Cl)cc5[nH]4)nc(N4CCOCC4)nc32)cn1,% of control,[4],33.4%
same,% of control,[5],34.1%
CNC(=O)Nc1ccc(-c2nc(N3CC4CCC(C3)O4)c3cnn(C4CCC5(CC4)OCCO5)c3n2)cc1,% of control,[6],100%
same,% of inhibition,[7],3%
COc1cc(Nc2nc(C)cc(-c3cnn4nc(OC)ccc34)n2)cc(C(F)(F)F)c1,% of control,[8],96%
same,% of control,[9],82%
